We go through eight compounds from ChEMBL document CHEMBL1201862, “PubChem BioAssay data set” (2004).

Common to all, as to assay: inhibition of tumour cell growth, NCI panel, 48 h
Test [1] has as its system KM12.
Test [2] deals with PC-3.
Test [3] concerns UACC-62.
Test [4] relates to NCI-H226.
Test [5] deals with HT-29.
Test [6] relates to CAKI-1.
Test [7] deals with A549.
Test [8] has as its system HOP-92.
The subject of test [9] is IGROV-1.
For test [10], the system named is A498.
In test [11] the test system is ACHN.
Test [12] has as its system MDA-MB-231.
Test [13] deals with LOX IMVI.
Test [14] has as its system SK-OV-3.
For test [15], the system named is SF-268.
Test [16] deals with SF-539.
Test [17] relates to BT-549.
Test [18] has as its system K562.
The subject of test [19] is M14.

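Test compounds were applied to cells in 96-well plates for 48 hours at 5 doses. GI50: concentration for 50% inhibition of growth.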 Activity calls are given as the source filed them. No stated cut-off is given here; in the data, active = GI50 up to about 1.1 µM and inactive = higher.

As to `OC(c1cc(-c2ccc(Cl)cc2)nc2ccccc12)C1CCCCN1` (centres undefined), the GI50 in test [1] was 2.26 µM (inactive); in [2] it was 1.97 µM (inactive); in test [3], 1.82 µM (inactive); in test [4], 4.21 µM (inactive); in test [5] it was 1.9 µM (inactive); in [6] it was 2.32 µM (inactive). Also, the GI50 in test [7] was 1.84 µM (inactive); in test [8], 3.37 µM (inactive); in [9], 1.76 µM (inactive); in test [10], 1.82 µM (inactive); in test [11], 1.95 µM (inactive); in [12], 1.95 µM (inactive). Also, the GI50 in [13] was 0.982 µM (active); in test [14], 2.16 µM (inactive); in test [15] it was 2.02 µM (inactive); in [16], 1.79 µM (inactive); in test [17], 5.09 µM (inactive); in test [18], 1.48 µM (inactive). The GI50 in test [19] is 1.77 µM (inactive).

For the compound `CCN(CC(=O)O)CC(=O)O`, the GI50 in test [1], in [2], in [3], in [4], in [5] and in test [6] was > 100 µM (inactive) in each case. In addition, the GI50 in test [7], in test [8], in test [9], in [10], in [11] and in [12] was > 100 µM (inactive) in each case. Also, the GI50 in [13], in test [14], in [15], in [16], in test [17] and in [18] was > 100 µM (inactive) in each case. Moreover, the GI50 in [19] was > 100 µM (inactive).

For the compound `Cc1ccc2c(=O)c(-c3nnsn3)c[nH]c2n1`, the GI50 in test [1], in [2], in [3], in [4], in [5] and in test [6] was > 100 µM (inactive) throughout. For the same compound, the GI50 in test [7], in test [9], in test [10], in [11], in test [12] and in test [13] was > 100 µM (inactive) in each case. Also, the GI50 in [15], in [17], in test [18] and in test [19] was > 100 µM (inactive) each time.

With `Cc1n[n+](CC(=O)c2ccccc2)c2sc(N)nn12`, the GI50 in [1], in [2], in test [3], in test [4], in [5] and in [6] was > 100 µM (inactive) throughout. In addition, the GI50 in test [7] is 96.8 µM (inactive); in test [9], > 100 µM (inactive); in test [10] it was > 100 µM (inactive); in [11], > 100 µM (inactive); in [12], > 100 µM (inactive); in test [13], > 100 µM (inactive). Besides, the GI50 in test [14], in [15], in test [17], in test [18] and in test [19] was > 100 µM (inactive) throughout.

Consider `CCSC1=N/C(=C\c2ccccc2O)C(Nc2ccc(C)cc2)=N1`, for which the GI50 in [1] was 24.5 µM (inactive); in test [2], 25.9 µM (inactive); in [3], > 100 µM (inactive); in test [4], 50.5 µM (inactive); in test [5] it was > 100 µM (inactive); in test [6], 86.1 µM (inactive). Besides, the GI50 in test [7] was 47.4 µM (inactive); in [8], 36.1 µM (inactive); in test [9], 32.8 µM (inactive); in test [10] it was > 100 µM (inactive); in test [11], 83.6 µM (inactive); in test [12] it was > 100 µM (inactive). Moreover, the GI50 was > 100 µM (inactive) in test [13]; 42.7 µM (inactive) in test [14]; 71.8 µM (inactive) in test [15]; 75 µM (inactive) in test [16]; > 100 µM (inactive) in test [17]; 28.2 µM (inactive) in [18]. Further, in [19], the GI50 is 48.8 µM (inactive).

As to `N=c1sc(N2CCOCC2)nn1CC(=O)c1ccccc1`, the GI50 in [1] is > 100 µM (inactive); in test [2], 96.8 µM (inactive); in [3], > 100 µM (inactive); in [4], > 100 µM (inactive); in [5], > 100 µM (inactive); in test [6], > 100 µM (inactive). The GI50 in test [7], in test [9], in test [11], in test [12], in [14] and in test [15] was > 100 µM (inactive) throughout. The GI50 in test [17], in test [18] and in test [19] was > 100 µM (inactive) in each case.

`COc1ccc(/C=C2\CN(C)Cc3c2nc(O)c(C#N)c3-c2ccc(OC)cc2)cc1`: the GI50 in [1] is 32.6 µM (inactive); in test [2] it was 44.4 µM (inactive); in [3], > 100 µM (inactive); in test [4], > 100 µM (inactive); in test [5], 38.5 µM (inactive); in test [6] it was > 100 µM (inactive). The GI50 was 44.6 µM (inactive) in test [7]; 25.2 µM (inactive) in [8]; 50 µM (inactive) in test [9]; > 100 µM (inactive) in test [11]; > 100 µM (inactive) in [12]; 92.7 µM (inactive) in test [13]. The GI50 in test [14] was 38.1 µM (inactive); in [15] it was 26.7 µM (inactive); in test [17], > 100 µM (inactive); in [18] it was 57.5 µM (inactive); in test [19], 39.7 µM (inactive).

On to `CCCCn1c(O)nc2c(N)ncnc21`, for which the GI50 in [2], in [3], in [4], in test [5], in test [7] and in [8] was > 100 µM (inactive) in each case. The GI50 in test [9], in test [10], in [11], in [12], in test [13] and in test [14] was > 100 µM (inactive) each time. The GI50 in test [15], in test [16], in [17], in [18] and in test [19] was > 100 µM (inactive) each time.
